Source: ChEMBL document CHEMBL3991601, “The target landscape of clinical kinase drugs” (Science, 2017)
The source made the active and inactive calls.

Experiments:
[1] = biological target: AP2-associated protein kinase 1 (Homo sapiens, UniProt Q2M2I8)
Activin receptor type-1B = biological target: T1, Activin receptor type-1B (Homo sapiens, UniProt P36896)
T1 sequence (P36896 whole entry): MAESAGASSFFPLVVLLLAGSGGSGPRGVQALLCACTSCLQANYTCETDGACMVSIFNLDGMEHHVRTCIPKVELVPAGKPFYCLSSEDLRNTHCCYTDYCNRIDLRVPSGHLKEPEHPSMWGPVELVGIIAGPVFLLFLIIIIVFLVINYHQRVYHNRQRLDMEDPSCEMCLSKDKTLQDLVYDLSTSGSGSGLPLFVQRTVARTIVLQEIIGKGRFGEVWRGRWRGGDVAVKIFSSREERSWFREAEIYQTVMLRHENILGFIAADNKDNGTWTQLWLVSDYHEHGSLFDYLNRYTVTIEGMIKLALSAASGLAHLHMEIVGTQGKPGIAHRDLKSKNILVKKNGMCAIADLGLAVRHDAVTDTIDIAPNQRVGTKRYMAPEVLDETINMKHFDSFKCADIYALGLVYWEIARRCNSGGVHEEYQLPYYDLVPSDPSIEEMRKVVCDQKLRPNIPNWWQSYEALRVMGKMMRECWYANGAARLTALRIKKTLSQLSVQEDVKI

[2] = biological target: Casein kinase I isoform gamma-1 (Homo sapiens, UniProt Q9HCP0)
Chain of Casein kinase I isoform gamma-1 (Q9HCP0 whole entry, canonical isoform): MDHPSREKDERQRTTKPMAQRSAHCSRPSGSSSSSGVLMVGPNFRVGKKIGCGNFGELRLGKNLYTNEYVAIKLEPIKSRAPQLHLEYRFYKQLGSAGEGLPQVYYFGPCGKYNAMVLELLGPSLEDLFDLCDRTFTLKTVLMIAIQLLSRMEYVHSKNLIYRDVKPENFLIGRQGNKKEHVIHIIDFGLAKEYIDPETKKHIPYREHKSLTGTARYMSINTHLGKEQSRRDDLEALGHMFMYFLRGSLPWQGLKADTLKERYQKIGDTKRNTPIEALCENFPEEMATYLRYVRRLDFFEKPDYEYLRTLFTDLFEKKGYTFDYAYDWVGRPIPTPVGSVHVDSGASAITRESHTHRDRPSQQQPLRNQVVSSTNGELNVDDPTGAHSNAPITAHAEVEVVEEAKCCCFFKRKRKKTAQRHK

Ephrin type-B receptor 3 = biological target: T2, Ephrin type-B receptor 3 (Homo sapiens, UniProt P54753)
T2 sequence (P54753 whole entry): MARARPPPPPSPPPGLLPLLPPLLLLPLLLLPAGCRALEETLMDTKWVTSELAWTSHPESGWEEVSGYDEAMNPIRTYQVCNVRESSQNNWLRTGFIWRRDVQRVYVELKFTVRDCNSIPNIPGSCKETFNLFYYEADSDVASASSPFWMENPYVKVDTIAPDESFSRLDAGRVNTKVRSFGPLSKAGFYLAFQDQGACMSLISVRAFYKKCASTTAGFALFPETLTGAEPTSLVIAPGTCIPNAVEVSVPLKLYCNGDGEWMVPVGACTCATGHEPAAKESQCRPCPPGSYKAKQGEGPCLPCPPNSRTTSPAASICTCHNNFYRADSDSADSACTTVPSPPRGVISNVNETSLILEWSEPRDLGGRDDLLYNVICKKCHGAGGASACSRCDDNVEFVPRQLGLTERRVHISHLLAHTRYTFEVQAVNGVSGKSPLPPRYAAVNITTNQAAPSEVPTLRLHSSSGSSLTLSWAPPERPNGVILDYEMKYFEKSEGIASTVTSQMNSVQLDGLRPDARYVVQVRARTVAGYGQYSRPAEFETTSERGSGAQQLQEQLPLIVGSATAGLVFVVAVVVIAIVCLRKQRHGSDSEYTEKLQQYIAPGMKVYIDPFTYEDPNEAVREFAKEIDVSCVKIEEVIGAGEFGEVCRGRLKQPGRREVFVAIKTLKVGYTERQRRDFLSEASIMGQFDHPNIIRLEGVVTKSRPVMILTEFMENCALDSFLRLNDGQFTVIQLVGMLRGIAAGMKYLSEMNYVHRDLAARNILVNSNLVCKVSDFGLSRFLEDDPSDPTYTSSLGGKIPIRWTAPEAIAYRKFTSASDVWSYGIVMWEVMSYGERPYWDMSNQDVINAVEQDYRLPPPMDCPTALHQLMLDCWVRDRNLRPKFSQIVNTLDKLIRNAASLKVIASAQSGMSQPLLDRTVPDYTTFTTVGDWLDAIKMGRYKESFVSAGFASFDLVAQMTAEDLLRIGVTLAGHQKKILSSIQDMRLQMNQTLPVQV

[3] = biological target: Tyrosine-protein kinase Fyn (Homo sapiens, UniProt P06241)
Chain of Tyrosine-protein kinase Fyn (P06241 whole entry): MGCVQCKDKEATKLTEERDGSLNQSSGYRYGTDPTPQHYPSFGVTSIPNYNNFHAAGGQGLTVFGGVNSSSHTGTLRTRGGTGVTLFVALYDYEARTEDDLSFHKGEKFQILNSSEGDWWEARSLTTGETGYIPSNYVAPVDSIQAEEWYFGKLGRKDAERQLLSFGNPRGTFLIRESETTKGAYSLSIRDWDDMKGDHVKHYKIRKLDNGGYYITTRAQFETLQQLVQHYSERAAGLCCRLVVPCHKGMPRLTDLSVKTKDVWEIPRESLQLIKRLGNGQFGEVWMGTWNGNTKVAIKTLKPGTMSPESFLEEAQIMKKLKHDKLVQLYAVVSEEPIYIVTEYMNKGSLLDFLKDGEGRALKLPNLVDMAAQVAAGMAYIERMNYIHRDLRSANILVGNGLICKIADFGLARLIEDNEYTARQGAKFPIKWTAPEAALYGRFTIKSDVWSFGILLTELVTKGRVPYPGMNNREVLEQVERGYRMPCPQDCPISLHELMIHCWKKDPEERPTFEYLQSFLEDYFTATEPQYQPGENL

[4] = biological target: Guanine nucleotide-binding protein G(i) subunit alpha-2 (Homo sapiens, UniProt P04899)
Chain of Guanine nucleotide-binding protein G(i) subunit alpha-2 (P04899 whole entry): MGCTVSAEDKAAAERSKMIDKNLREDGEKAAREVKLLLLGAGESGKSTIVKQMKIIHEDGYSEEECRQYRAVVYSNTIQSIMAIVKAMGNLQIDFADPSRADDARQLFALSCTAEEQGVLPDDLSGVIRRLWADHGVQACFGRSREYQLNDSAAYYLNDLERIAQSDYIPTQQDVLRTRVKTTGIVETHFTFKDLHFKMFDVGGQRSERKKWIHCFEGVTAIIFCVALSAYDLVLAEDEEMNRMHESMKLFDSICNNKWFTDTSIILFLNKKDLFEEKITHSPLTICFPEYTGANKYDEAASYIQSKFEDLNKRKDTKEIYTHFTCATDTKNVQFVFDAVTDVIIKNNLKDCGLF

[5] = biological target: Putative heat shock protein HSP 90-beta 2 (Homo sapiens, UniProt Q58FF8)
Chain of Putative heat shock protein HSP 90-beta 2 (Q58FF8 whole entry): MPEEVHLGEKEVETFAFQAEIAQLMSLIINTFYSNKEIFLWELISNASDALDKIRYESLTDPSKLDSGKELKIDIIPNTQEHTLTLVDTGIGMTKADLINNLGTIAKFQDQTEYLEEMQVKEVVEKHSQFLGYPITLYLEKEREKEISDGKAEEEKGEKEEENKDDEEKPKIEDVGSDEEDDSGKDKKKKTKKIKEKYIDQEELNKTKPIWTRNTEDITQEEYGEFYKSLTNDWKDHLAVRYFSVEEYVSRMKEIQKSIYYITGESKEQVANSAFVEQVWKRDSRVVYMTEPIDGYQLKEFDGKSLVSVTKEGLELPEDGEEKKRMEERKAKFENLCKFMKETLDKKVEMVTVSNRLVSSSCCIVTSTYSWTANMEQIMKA

[6] = biological target: Mitogen-activated protein kinase 11 (Homo sapiens, UniProt Q15759)
Chain of Mitogen-activated protein kinase 11 (Q15759 whole entry): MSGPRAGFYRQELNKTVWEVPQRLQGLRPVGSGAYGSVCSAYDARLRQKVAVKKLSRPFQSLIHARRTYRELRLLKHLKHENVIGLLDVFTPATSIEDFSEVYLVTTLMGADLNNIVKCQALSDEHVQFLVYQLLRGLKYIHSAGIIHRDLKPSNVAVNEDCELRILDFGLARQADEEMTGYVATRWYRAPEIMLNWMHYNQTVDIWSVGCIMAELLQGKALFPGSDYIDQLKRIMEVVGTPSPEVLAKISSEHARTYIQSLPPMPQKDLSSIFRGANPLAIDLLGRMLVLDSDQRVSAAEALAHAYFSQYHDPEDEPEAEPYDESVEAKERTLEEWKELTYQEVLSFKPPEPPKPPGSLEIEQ

Focal adhesion kinase 1 = Focal adhesion kinase 1 (Homo sapiens, UniProt Q05397)
Chain of Focal adhesion kinase 1 (Q05397 whole entry): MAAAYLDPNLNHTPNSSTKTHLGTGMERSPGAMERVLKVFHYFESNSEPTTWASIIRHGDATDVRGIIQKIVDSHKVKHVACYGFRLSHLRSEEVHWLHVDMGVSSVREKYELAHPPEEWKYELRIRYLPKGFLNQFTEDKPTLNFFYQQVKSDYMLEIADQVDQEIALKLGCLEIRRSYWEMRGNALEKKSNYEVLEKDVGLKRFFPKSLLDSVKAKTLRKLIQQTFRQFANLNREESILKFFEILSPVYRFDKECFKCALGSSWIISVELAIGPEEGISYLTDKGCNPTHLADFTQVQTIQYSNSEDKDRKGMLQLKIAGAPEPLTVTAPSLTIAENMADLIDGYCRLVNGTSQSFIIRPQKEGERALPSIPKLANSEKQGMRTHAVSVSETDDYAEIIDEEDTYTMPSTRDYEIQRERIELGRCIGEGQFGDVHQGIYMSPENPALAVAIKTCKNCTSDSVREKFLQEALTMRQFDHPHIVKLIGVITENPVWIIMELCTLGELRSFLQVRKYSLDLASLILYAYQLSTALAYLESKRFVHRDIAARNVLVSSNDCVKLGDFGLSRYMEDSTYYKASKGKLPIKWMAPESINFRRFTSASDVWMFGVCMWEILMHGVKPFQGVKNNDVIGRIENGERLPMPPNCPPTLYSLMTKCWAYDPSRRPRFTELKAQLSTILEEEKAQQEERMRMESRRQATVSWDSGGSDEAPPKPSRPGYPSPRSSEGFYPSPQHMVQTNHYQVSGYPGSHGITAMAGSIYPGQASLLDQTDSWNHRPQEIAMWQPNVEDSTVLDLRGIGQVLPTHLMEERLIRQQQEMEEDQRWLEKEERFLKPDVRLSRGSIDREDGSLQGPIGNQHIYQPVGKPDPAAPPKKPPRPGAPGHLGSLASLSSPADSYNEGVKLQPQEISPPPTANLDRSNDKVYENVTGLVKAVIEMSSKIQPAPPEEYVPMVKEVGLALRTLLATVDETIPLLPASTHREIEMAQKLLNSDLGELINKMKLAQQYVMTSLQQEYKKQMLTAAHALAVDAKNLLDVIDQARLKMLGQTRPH

[7] = biological target: Ribosomal protein S6 kinase beta-1 (Homo sapiens, UniProt P23443)
Chain of Ribosomal protein S6 kinase beta-1 (P23443 whole entry): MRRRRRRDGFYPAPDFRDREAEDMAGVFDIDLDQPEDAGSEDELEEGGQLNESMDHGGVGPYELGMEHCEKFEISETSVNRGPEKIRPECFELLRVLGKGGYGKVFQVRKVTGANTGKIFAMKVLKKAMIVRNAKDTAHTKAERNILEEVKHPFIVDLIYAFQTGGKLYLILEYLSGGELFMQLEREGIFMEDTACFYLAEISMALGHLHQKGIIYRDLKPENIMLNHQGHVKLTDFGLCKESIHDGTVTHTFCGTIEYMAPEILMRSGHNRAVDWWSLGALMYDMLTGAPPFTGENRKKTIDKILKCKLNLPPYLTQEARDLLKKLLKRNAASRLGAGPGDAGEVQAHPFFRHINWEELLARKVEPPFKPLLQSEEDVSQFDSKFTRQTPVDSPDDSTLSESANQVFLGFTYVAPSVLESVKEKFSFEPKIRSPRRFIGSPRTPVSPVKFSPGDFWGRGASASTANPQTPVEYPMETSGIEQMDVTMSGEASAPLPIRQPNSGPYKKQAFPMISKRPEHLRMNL

[8] = biological target: T3, Succinate--CoA ligase [ADP-forming] subunit beta, mitochondrial (Homo sapiens, UniProt Q9P2R7)
T3 sequence (Q9P2R7 whole entry): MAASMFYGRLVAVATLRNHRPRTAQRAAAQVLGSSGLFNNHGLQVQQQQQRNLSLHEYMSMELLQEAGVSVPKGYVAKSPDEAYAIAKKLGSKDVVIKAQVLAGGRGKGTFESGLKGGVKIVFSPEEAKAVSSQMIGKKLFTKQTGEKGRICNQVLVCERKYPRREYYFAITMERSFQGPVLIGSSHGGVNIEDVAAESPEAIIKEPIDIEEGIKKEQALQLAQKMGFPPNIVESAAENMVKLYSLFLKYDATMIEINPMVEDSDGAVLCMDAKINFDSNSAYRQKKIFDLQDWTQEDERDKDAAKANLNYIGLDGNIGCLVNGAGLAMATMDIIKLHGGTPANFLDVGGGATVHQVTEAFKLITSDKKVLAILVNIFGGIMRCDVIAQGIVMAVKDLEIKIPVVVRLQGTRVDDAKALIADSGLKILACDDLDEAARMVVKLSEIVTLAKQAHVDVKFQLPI

[9] = biological target: Casein kinase I isoform alpha (Homo sapiens, UniProt P48729)
Chain of Casein kinase I isoform alpha (P48729 whole entry, canonical isoform): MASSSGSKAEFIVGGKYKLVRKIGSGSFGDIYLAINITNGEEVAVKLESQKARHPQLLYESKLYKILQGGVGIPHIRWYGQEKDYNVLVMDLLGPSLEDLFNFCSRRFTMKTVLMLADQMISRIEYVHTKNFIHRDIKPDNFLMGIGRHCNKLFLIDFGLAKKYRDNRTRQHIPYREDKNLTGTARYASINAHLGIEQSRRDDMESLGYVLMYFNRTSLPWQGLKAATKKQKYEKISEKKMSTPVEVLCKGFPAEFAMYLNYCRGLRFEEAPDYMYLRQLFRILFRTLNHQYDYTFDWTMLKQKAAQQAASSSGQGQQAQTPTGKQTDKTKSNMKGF
Also: in the data inactive means no Kd found up to 30 µM.

Chain of AP2-associated protein kinase 1 (Q2M2I8 whole entry): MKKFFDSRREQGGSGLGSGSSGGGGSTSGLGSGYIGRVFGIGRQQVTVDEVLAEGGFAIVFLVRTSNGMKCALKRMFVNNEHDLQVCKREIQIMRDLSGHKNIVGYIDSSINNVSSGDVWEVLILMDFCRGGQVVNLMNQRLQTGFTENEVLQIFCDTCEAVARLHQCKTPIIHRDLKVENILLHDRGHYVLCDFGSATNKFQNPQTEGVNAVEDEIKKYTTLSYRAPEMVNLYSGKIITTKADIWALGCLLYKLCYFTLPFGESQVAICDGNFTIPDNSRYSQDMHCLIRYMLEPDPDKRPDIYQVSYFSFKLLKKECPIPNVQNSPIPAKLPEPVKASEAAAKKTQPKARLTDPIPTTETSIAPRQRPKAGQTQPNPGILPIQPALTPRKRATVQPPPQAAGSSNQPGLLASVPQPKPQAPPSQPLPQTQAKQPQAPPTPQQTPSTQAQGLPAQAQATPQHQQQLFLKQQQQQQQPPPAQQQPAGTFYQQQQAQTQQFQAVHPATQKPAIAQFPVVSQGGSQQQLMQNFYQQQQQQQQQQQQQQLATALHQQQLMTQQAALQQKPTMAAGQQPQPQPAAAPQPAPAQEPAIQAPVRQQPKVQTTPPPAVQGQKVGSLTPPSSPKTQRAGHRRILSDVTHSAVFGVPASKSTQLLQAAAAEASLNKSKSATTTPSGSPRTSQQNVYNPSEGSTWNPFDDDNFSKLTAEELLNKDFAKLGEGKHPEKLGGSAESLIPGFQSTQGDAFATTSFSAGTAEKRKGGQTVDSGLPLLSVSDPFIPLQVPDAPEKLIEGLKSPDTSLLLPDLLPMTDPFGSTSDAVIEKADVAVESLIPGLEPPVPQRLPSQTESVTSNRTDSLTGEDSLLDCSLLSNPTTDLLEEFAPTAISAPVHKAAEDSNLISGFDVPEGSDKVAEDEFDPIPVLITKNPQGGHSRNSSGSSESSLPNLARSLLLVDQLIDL

SMILES | Kd [1] | Kd (Activin receptor type-1B) | Kd [2] | Kd (Ephrin type-B receptor 3) | Kd [3] | Kd [4] | Kd [5] | Kd [6] | Kd (Focal adhesion kinase 1) | Kd [7] | Kd [8] | Kd [9]
Cc1nc2cc(-c3nn(C(C)C)c4ncnc(N)c34)ccc2o1 | > 30 µM (inactive) | 0.767 µM (active) | > 30 µM (inactive) | > 30 µM (inactive) | > 30 µM (inactive) | > 30 µM (inactive) | > 30 µM (inactive) | > 30 µM (inactive) | > 30 µM (inactive) | > 30 µM (inactive) | > 30 µM (inactive) | 
CC(C)(C)c1nc(-c2cccc(NS(=O)(=O)c3c(F)cccc3F)c2F)c(-c2ccnc(N)n2)s1 [DABRAFENIB] | > 30 µM (inactive) | 0.601 µM (active) |  | > 30 µM (inactive) |  | > 30 µM (inactive) | > 30 µM (inactive) | > 30 µM (inactive) | > 30 µM (inactive) |  |  | > 30 µM (inactive)
O=C(Nc1cc(C(F)(F)F)cc(C(F)(F)F)c1)c1cc(Cl)ccc1O [IMD-0354] | > 30 µM (inactive) | > 30 µM (inactive) | > 30 µM (inactive) | > 30 µM (inactive) | > 30 µM (inactive) | > 30 µM (inactive) | > 30 µM (inactive) | > 30 µM (inactive) | > 30 µM (inactive) |  | > 30 µM (inactive) | > 30 µM (inactive)
Cc1[nH]c(/C=C2\C(=O)Nc3ccccc32)c(C)c1CCC(=O)O [ORANTINIB] | 1.17 µM (active) | > 30 µM (inactive) |  | > 30 µM (inactive) |  | > 30 µM (inactive) | > 30 µM (inactive) | > 30 µM (inactive) |  |  |  | 
NC(=O)c1c(OCc2c(F)cc(Br)cc2F)nsc1NC(=O)NCCCCN1CCCC1 [OSI-632] | > 30 µM (inactive) | 0.004 µM (active) |  | > 30 µM (inactive) |  | > 30 µM (inactive) | > 30 µM (inactive) | > 30 µM (inactive) |  |  | > 30 µM (inactive) | 
O=C(NOCCO)c1cc(CN2OCCCC2=O)c(F)c(F)c1Nc1ccc(I)cc1F [RO-4987655] |  |  |  |  |  | > 30 µM (inactive) | > 30 µM (inactive) |  |  |  | > 30 µM (inactive) | 
N#CC[C@H](C1CCCC1)n1cc(-c2ncnc3[nH]ccc23)cn1 [RUXOLITINIB] |  |  |  |  |  | > 30 µM (inactive) | > 30 µM (inactive) |  |  |  | > 30 µM (inactive) | 
CN1CCN(CCOc2cc(OC3CCOCC3)c3c(Nc4c(Cl)ccc5c4OCO5)ncnc3c2)CC1 [SARACATINIB] | > 30 µM (inactive) | 0.142 µM (active) | > 30 µM (inactive) | > 30 µM (inactive) |  | > 30 µM (inactive) | > 30 µM (inactive) | > 30 µM (inactive) | > 30 µM (inactive) | > 30 µM (inactive) |  | > 30 µM (inactive)
Cn1cc(-c2cnn3c(N)c(Br)c([C@@H]4CCCNC4)nc23)cn1 [SCH-900776] | > 30 µM (inactive) | > 30 µM (inactive) | > 30 µM (inactive) | > 30 µM (inactive) | > 30 µM (inactive) |  | > 30 µM (inactive) | > 30 µM (inactive) | > 30 µM (inactive) | > 30 µM (inactive) | > 30 µM (inactive) | > 30 µM (inactive)
CO[C@H]1C[C@@H]2CC[C@@H](C)[C@@](O)(O2)C(=O)C(=O)N2CCCC[C@H]2C(=O)O[C@H]([C@H](C)C[C@@H]2CC[C@@H](O)[C@H](OC)C2)CC(=O)[C@H](C)/C=C(\C)[C@@H](O)[C@@H](OC)C(=O)[C@H](C)C[C@H](C)/C=C/C=C/C=C/1C [SIROLIMUS] | > 30 µM (inactive) | > 30 µM (inactive) | > 30 µM (inactive) | > 30 µM (inactive) | > 30 µM (inactive) |  | > 30 µM (inactive) | > 30 µM (inactive) | > 30 µM (inactive) | > 30 µM (inactive) | > 30 µM (inactive) | > 30 µM (inactive)
CC(C)c1cc(CNc2nc(Nc3cc(C4CC4)[nH]n3)cc(N3CCN(C)CC3)n2)on1 [XL-228] | 0.138 µM (active) | > 30 µM (inactive) | > 30 µM (inactive) | > 30 µM (inactive) | 0.023 µM (active) |  | > 30 µM (inactive) | > 30 µM (inactive) | 0.022 µM (active) | > 30 µM (inactive) | > 30 µM (inactive) | > 30 µM (inactive)

Further lines, results first:

Kd [1] | Kd (Activin receptor type-1B) | Kd [2] | Kd (Ephrin type-B receptor 3) | Kd [3] | Kd [4] | Kd [5] | Kd [6] | Kd (Focal adhesion kinase 1) | Kd [7] | Kd [8] | Kd [9] | SMILES
> 30 µM (inactive) | > 30 µM (inactive) | > 30 µM (inactive) | > 30 µM (inactive) | > 30 µM (inactive) | > 30 µM (inactive) | > 30 µM (inactive) | > 30 µM (inactive) | > 30 µM (inactive) | > 30 µM (inactive) | > 30 µM (inactive) |  | Nc1ncnc2c1c(-c1cccc(OCc3ccccc3)c1)cn2[C@H]1C[C@@H](CN2CCC2)C1 [AEW-541]
> 30 µM (inactive) | > 30 µM (inactive) |  |  |  | 0.184 µM | > 30 µM (inactive) | > 30 µM (inactive) |  |  | > 30 µM (inactive) |  | COc1cc(Nc2ncc3c(n2)-c2ccc(Cl)cc2C(c2c(F)cccc2OC)=NC3)ccc1C(=O)O [ALISERTIB]
 |  |  |  |  | > 30 µM (inactive) | > 30 µM (inactive) |  |  |  | > 30 µM (inactive) |  | CNC(=O)c1ccccc1Sc1ccc2c(/C=C/c3ccccn3)n[nH]c2c1 [AXITINIB]
> 30 µM (inactive) | 0.016 µM (active) | > 30 µM (inactive) | > 30 µM (inactive) | > 30 µM (inactive) | > 30 µM (inactive) | > 30 µM (inactive) | > 30 µM (inactive) | > 30 µM (inactive) | > 30 µM (inactive) | > 30 µM (inactive) |  | Cc1cccc(-c2nn3c(c2-c2ccnc4ccc(C(N)=O)cc24)CCC3)n1 [GALUNISERTIB]
 |  |  |  |  | > 30 µM (inactive) | > 30 µM (inactive) |  |  |  | > 30 µM (inactive) |  | C[C@@H](Oc1cc(-n2cnc3ccc(CN4CCN(C)CC4)cc32)sc1C(N)=O)c1ccccc1C(F)(F)F [GSK-461364]
3.04 µM (active) | > 30 µM (inactive) | > 30 µM (inactive) | > 30 µM (inactive) | 1.23 µM (active) | > 30 µM (inactive) | > 30 µM (inactive) | > 30 µM (inactive) | > 30 µM (inactive) |  | > 30 µM (inactive) | > 30 µM (inactive) | Cc1nc(Nc2n[nH]c3c2CN(C(=O)N[C@H](CN(C)C)c2ccccc2)C3(C)C)c2sccc2n1 [PF-03758309]
> 30 µM (inactive) | > 30 µM (inactive) | > 30 µM (inactive) | > 30 µM (inactive) | > 30 µM (inactive) |  | > 30 µM (inactive) | > 30 µM (inactive) | > 30 µM (inactive) | > 30 µM (inactive) | > 30 µM (inactive) | > 30 µM (inactive) | O=C(Cc1ccc(-c2ccc(OCCN3CCOCC3)cc2)cn1)NCc1ccccc1 [TIRBANIBULIN]
